Laboratory results: ChEMBL document CHEMBL5356986, “Research status of indole-modified natural products” (RSC Med Chem, 2023)
Converted amounts (≈) assume the structure as drawn.

What was measured:
[1] = test system: HepG2; experiment: Cytotoxicity against human HepG2 cells by MTT assay; format: functional, cell-based
[2] = target: T1, Alpha glucosidase (Homo sapiens, UniProt O43451+P10253+P14410+Q2M2H8); experiment: Inhibition of Alpha-glucosidase (unknown origin) using p-nitrophenyl glucopyranoside as substrate by UV based microplate reader analysis; format: protein assay
[3] = test system: HCT-116; experiment: Antiproliferative activity against human HCT-116 cells assessed as inhibition of cell growth; format: functional, cell-based
[4] = test system: MCF7; experiment: Antiproliferative activity against human MCF7 cells assessed as inhibition of cell growth by CCK8 assay; format: functional, cell-based
[5] = test system: HeLa; experiment: Cytotoxicity against human HeLa cells assessed as cell growth inhibition incubated for 24 hrs by MTT assay; format: functional, cell-based
[6] = test system: HepG2; experiment: Antiproliferative activity against human HepG2 cells assessed as reduction in cell viability incubated for 48 hrs by MTT assay; format: functional, cell-based; conditions: HepG2, 48 h
[7] = test system: A549; experiment: Antiproliferative activity against human A549 cells assessed as reduction in cell growth incubated for 72 hrs by MTT assay; format: functional, cell-based; conditions: A549, 72 h
[8] = test system: A549; experiment: Antiproliferative activity against human A549 cells assessed as reduction in cell viability incubated for 48 hrs by MTT assay; format: functional, cell-based; conditions: A549, 48 h
[9] = test system: K562; experiment: Antiproliferative activity against human K562 cells assessed as cell growth inhibition by MTT assay; format: functional, cell-based
[10] = test system: HeLa; experiment: Antiproliferative activity against human HeLa cells assessed as reduction in cell growth; format: functional, cell-based
[11] = test system: MCF7; experiment: Antiproliferative activity against human MCF7 cells assessed as reduction in cell viability incubated for 120 hrs by MTT assay; format: functional, cell-based; conditions: MCF7, 120 h
[12] = test system: HOP-92; experiment: Growth inhibition against human HOP-92 cells incubated for 48 hrs by sulforhodamine B assay; format: functional
[13] = target: Prostaglandin G/H synthase 2 (Homo sapiens, UniProt P35354); experiment: Inhibition of COX-2 (unknown origin)
Chain of Prostaglandin G/H synthase 2 (P35354 whole entry): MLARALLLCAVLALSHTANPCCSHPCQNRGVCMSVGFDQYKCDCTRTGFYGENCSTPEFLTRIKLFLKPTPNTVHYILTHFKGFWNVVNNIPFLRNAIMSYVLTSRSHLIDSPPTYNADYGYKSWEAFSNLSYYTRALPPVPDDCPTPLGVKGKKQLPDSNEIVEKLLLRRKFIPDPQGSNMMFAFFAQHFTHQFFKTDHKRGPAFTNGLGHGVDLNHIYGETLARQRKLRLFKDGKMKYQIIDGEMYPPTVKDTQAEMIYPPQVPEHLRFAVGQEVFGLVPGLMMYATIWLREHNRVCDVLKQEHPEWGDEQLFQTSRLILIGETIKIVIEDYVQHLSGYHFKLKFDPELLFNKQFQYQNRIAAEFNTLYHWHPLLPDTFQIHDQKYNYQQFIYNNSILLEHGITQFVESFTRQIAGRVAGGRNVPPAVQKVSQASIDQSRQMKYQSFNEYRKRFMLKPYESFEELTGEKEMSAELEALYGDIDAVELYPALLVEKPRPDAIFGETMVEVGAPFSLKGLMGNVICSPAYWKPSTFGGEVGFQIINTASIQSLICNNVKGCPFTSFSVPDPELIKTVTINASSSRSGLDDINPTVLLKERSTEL

[14] = test system: Toxoplasma gondii; experiment: Antiparasitic activity against Toxoplasma gondii tachyzoites infected in human HeLa cells; format: functional, organism-based
[15] = test system: Caco-2; experiment: Antiproliferative activity against human Caco-2 cells incubated for 96 hrs by MTT assay; format: functional, cell-based; conditions: Caco-2, 96 h
[16] = test system: PC-3; experiment: Antiproliferative activity against human PC-3 cells assessed as reduction in cell growth measured after 24 hrs by MTT assay; format: functional, cell-based; conditions: PC-3, 24 h
[17] = test system: HeLa; experiment: Cytotoxicity against human HeLa cells assessed as reduction in cell viability incubated for 48 hrs by MTT assay; format: functional, cell-based
[18] = target: Tyrosine-protein phosphatase non-receptor type 1 (Homo sapiens, UniProt P18031); experiment: Inhibition of Protein tyrosine phosphatase 1B (unknown origin)
Chain of Tyrosine-protein phosphatase non-receptor type 1 (P18031 whole entry): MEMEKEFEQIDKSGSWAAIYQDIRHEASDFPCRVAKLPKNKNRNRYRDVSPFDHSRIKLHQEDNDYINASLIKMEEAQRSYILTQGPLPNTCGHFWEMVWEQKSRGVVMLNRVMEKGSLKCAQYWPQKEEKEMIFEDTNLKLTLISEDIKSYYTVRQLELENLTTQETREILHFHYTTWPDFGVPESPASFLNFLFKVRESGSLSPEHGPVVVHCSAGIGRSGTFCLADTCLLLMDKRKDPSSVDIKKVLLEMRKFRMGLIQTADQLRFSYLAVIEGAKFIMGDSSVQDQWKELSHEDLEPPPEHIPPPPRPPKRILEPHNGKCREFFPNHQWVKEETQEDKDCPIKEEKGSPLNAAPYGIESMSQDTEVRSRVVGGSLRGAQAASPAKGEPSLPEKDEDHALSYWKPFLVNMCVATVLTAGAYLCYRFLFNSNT

[19] = test system: Nannizzia gypsea; experiment: Antifungal activity against Microsporum gypseum assessed as fungal growth inhibition; format: functional
[20] = test system: Trichophyton mentagrophytes; experiment: Antifungal activity against Trichophyton mentagrophytes assessed as inhibition of fungal growth incubated for 48 hrs by serial plate dilution method; format: functional
[21] = test system: Trichophyton mentagrophytes; experiment: Antifungal activity against Trichophyton mentagrophytes assessed as inhibition of microbial growth; format: functional
[22] = test system: Arthrodermataceae; experiment: Antibacterial activity against Arthrodermataceae; format: functional
[23] = target: T1, Alpha glucosidase; experiment: Inhibition of Alpha-glucosidase (unknown origin) spectrophotometric analysis; format: protein assay
[24] = target: Mu-type opioid receptor (Homo sapiens, UniProt P35372); experiment: Inhibition of mu opioid receptor (unknown origin)
Chain of Mu-type opioid receptor (P35372 whole entry): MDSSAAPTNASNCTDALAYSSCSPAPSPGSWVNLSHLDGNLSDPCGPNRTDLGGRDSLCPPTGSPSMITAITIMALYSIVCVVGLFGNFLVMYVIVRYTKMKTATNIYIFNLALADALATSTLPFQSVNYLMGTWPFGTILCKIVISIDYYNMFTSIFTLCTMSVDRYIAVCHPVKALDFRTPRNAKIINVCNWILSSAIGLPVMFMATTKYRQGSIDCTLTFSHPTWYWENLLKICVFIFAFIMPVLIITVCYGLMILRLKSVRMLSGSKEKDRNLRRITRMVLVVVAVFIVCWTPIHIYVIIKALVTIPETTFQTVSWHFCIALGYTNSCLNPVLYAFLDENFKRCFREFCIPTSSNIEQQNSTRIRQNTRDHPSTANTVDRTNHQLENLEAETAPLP

[25] = test system: SGC-7901; experiment: Cytotoxicity against human SGC-7901 cells assessed as reduction in cell viability measured after 48 hrs by MTT colorimetric assay; format: functional, cell-based; conditions: SGC-7901, 48 h
[26] = test system: HepG2; experiment: Cytotoxicity against human HepG2 cells assessed as reduction in cell viability measured after 48 hrs by MTT colorimetric based assay; format: functional; conditions: HepG2, 48 h
[27] = test system: HepG2; experiment: Cytotoxicity against human HepG2 cells assessed as cell growth inhibition; format: functional, cell-based
[28] = Cytotoxicity against mouse RAW264.7 cells assessed as reduction in cell viability incubated for 48 hrs by MTT assay; format: toxicity, cell-based
[29] = test system: SMMC-7721; experiment: Cytotoxicity against human SMMC-7721 cells assessed as reduction in cell viability; format: functional, cell-based
[30] = target: Acetylcholinesterase (Homo sapiens, UniProt P22303); experiment: Inhibition of Acetylcholinesterase (unknown origin)
Chain of Acetylcholinesterase (P22303 whole entry): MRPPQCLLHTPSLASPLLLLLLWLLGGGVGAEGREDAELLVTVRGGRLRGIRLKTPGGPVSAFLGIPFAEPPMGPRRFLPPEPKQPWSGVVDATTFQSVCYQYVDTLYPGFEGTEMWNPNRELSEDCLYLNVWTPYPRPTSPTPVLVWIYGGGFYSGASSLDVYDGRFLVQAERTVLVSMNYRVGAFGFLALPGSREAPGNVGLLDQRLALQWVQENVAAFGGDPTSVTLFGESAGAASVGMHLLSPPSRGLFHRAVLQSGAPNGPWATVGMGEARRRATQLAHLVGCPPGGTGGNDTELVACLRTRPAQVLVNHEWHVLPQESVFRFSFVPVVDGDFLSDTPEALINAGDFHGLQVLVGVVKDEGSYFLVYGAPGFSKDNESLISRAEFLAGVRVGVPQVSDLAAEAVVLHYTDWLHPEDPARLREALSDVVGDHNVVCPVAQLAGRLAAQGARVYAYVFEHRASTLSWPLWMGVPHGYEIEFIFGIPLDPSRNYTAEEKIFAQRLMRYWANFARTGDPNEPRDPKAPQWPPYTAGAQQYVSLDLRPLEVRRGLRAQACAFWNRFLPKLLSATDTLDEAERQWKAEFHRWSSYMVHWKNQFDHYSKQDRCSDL

[31] = test system: Escherichia coli; experiment: Antibacterial activity against Escherichia coli assessed as reduction in bacterial cell viability; format: functional
[32] = test system: Bacillus subtilis; experiment: Antibacterial activity against Bacillus subtilis assessed as reduction in microbial growth; format: functional
[33] = test system: Fusarium oxysporum; experiment: Antifungal activity against Fusarium oxysporum assessed as inhibition of fungal growth; format: functional
[34] = test system: Staphylococcus aureus; experiment: Antibacterial activity against Staphylococcus aureus assessed as reduction in microbial growth; format: functional
[35] = test system: Klebsiella pneumoniae; experiment: Antibacterial activity against Klebsiella pneumoniae assessed as reduction in bacterial growth by broth microdilution method; format: functional
[36] = test system: Aspergillus niger; experiment: […] against Aspergillus niger assessed as […] incubated for 24 hrs by agar disc diffusion assay; format: functional
[37] = test system: Candida albicans; experiment: Antibacterial activity against Candida albicans assessed as reduction in bacterial growth; format: functional
[38] = test system: RAW264.7; experiment: Anti-inflammatory activity in mouse RAW264.7 cells assessed as inhibition of LPS-induced NO production; format: functional, cell-based

For `COc1ccc(C(=O)/C=C/c2ccc3c(ccn3C)c2)c2c1C=CC(C)(C)O2`, the IC50 [1] was 0.82 µM.
`C=C(C)[C@@H](C)CC[C@@H](C)[C@H]1CC[C@@]2(C)[C@@H]3CC[C@H]4[C@H](C)C(=O)CC[C@@]45C[C@@]35CC[C@]12C` gave an IC50 [2] of 603.8 µM.
With `COc1cc(C(=O)/C(C)=C/c2c[nH]c3cc(F)ccc23)cc(OC)c1OCCN` the IC50 [3] was 0.0032 µM.
Compound `CC(C)[C@@H](C)/C=C/[C@@H](C)[C@H]1CC[C@@H]2[C@]1(C)CC[C@H]1[C@]23C=C[C@]2(C[C@@H](O)CC[C@]12C)OO3` [ERGOSTEROL PEROXIDE] has an IC50 [4] of 18 µM, an IC50 [5] of 19.5 µM and an IC50 [6] of 23.4 µM.
Work on `COc1cc([C@@H]2c3cc4c(cc3[C@@H](O[C@@H]3O[C@@H]5CO[C@@H](C)O[C@H]5[C@H](O)[C@H]3O)[C@H]3COC(=O)[C@H]23)OCO4)cc(OC)c1O` [ETOPOSIDE] yielded an IC50 [7] of 9.9 µM, an IC50 [8] of 2.27 µM and an IC50 [9] of 1.72 µM. The IC50 [10] was 2.56 µM and the IC50 [11] was 2.56 µM.
`Cc1cc(=O)oc2c(C)c(O)c(-c3cc4ccc(F)cc4[nH]3)cc12` gave a GI50 [12] of 0.95 µM.
In the case of `CC1=NN(c2ccccc2)C(=O)/C1=C\c1cn(CCCOc2cc(O)c3c(=O)cc(-c4ccccc4)oc3c2)c2ccccc12`, the IC50 [13] is reported as 0.7 µM.
For SPIRAMYCIN, the IC50 [14] was 262 µM.
`COc1cc(/C=C/C(=O)CC(=O)/C=C/c2ccc(O)c(OC)c2)ccc1O` [CURCUMIN] gave an IC50 [15] of 47.6 µM, an IC50 [16] of 12.2 µM and an IC50 [17] of 25.4 µM.
Compound `CC1(C)c2[nH]c3ccc(C(F)(F)F)cc3c2C[C@]2(C)[C@H]3C(=O)C=C4[C@@H]5C[C@@](C)(C(=O)O)CC[C@]5(C)CC[C@@]4(C)[C@]3(C)CC[C@@H]12` has an IC50 [18] of 4.3 µM.
With `COc1cc(/C=C/C(=O)c2c[nH]c3ccccc23)cc(Br)c1OC` the MIC [19] was 1 µg/mL (≈ 2.59 µM), the MIC [20] was 32 µg/mL (≈ 82.8 µM) and the MIC [21] was 16 µg/mL.
In the case of `COc1ccc(/C=C/C(=O)c2cn(C)c3ccccc23)cc1`, the MIC [19] is reported as 1 µg/mL (≈ 3.43 µM), the MIC [22] is reported as 4 µg/mL (≈ 13.7 µM) and the MIC [21] is reported as 8 µg/mL.
`COc1ccc2c(CSC(=S)NCCc3c[nH]c4ccccc34)cc(=O)oc2c1` showed an IC50 [23] of 85 µM.
`O=C(N[C@@H]1CC[C@@]2(O)[C@H]3Cc4ccc(O)c5c4[C@@]2(CCN3CC2CC2)[C@H]1O5)c1cc2ccccc2[nH]1` gave an IC50 [24] of 0.00021 µM.
`CC(C)COC(=O)[C@]12CC[C@@H](C)[C@H](C)[C@H]1C1=CC(=O)[C@@H]3[C@@]4(C)Cc5c([nH]c6ccc(Cl)cc56)C(C)(C)[C@@H]4CC[C@@]3(C)[C@]1(C)CC2` gave an IC50 [25] of 3.12 µM, an IC50 [26] of 3.12 µM and an IC50 [27] of 3.12 µM.
For `C=C(C)[C@@H]1CC[C@]2(C)CC[C@]3(C)[C@H](CC[C@@H]4[C@@]5(C)Cc6c([nH]c7cc(I)ccc67)C(C)(C)[C@@H]5CC[C@]43C)[C@@H]12`, the IC50 at 48 h [28] was 22.6 µM.
Work on `Cc1ccc2[nH]c3c(c2c1)C[C@]1(C)[C@H]2CC=C4[C@@H]5[C@@H](C)[C@H](C)CC[C@]5(C(=O)NCCCN(C)C)CC[C@@]4(C)[C@]2(C)CC[C@H]1C3(C)C` yielded an IC50 [29] of 1.08 µM.
For `O=C1Cc2cc(OCc3ccc(F)cc3)ccc2C=C1C(=O)NCCc1c[nH]c2ccccc12`, the IC50 [30] was 0.16 µM.
With `NC(Cc1c[nH]c2ccccc12)C(=O)Oc1ccc2c(=O)c3ccccc3oc2c1` (stereo not given) the MIC [31] was 15 µg/mL (≈ 37.6 µM), the MIC [32] was 16 µg/mL and the MIC [33] was 20 µg/mL (≈ 50.2 µM). It also gave an MIC [34] of 16 µg/mL, an MIC [35] of 22 µg/mL (≈ 55.2 µM) and an MIC [36] of 21 µg/mL (≈ 52.7 µM). The MIC [37] was 20 µg/mL (≈ 50.2 µM) and the IC50 [38] was 26 µg/mL (≈ 65.3 µM).
